{"source": "patent US10933045B2", "about": "“Intranasal compositions for treatment of neurological and neurodegenerative diseases and disorders” (priority 2014, dated 2021)", "key": {"[1]": {"conditions": "cited from earlier work"}, "acetylcholinesterase": {"target": "acetylcholinesterase (Homo sapiens, UniProt P22303)", "sequence (P22303 32-614)": "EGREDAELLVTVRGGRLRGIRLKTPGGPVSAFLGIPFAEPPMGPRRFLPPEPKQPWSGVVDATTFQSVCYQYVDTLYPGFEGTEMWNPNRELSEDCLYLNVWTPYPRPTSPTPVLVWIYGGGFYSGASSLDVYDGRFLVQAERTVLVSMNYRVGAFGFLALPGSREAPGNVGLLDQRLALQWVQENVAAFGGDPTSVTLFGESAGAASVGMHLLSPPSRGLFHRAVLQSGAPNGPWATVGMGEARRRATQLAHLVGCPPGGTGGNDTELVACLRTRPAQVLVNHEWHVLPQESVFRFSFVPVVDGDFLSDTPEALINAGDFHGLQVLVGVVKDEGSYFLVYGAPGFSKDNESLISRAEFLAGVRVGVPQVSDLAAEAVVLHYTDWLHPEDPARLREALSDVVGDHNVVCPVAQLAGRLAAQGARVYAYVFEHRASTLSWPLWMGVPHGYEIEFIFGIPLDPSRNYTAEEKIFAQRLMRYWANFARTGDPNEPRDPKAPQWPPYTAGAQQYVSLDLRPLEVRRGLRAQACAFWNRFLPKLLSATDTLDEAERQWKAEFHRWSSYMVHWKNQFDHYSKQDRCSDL", "conditions": "estimated (Gobburu et al. 2001); cited from earlier work"}, "sigma one receptor [2]": {"target": "T1, sigma one receptor (Rattus norvegicus, UniProt Q9R0C9)", "T1 construct": "host or cells: rat brain", "T1 sequence (Q9R0C9 whole entry)": "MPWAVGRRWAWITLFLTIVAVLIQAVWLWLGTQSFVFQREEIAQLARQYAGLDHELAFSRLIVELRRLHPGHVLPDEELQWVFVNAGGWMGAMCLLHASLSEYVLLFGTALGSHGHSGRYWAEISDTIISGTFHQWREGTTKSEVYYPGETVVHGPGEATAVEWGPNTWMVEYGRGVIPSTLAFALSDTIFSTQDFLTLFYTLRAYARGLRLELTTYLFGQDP", "assay": "Dextromethorphan binding studies with rat brain (Klein and Musacchio 1992)"}, "[3]": {"conditions": "assumed value from literature; cited from earlier work"}, "sigma one receptor [4]": {"target": "T1, sigma one receptor", "conditions": "read-out: dissociation constant (Kd); binding studies with rat brain; cited from earlier work"}, "[5]": {"conditions": "Alzheimer's disease patients, 2 mg i.v. dose (Hossain et al. 2002)"}}, "note": "Like-named read-outs stand apart in the source and are kept apart here.", "data": [{"compound": "CCN(C)C(=O)Oc1cccc([C@H](C)N(C)C)c1", "note": "[rivastigmine, Rivastigmine]", "values": [{"measurement": "variation of intrinsic clearance (CL)", "setting": "[1]; Alzheimer's disease patients (Hossain et al. 2002)", "result": "up to 4 fold"}, {"measurement": "CL", "setting": "[1]; [5]", "result": "21.6 to 82.8", "unit": "L/h"}, {"measurement": "Vz", "setting": "[1]; [5]", "result": "53.2 to 227", "unit": "L"}]}, {"compound": "C[C@@H](c1cccc(O)c1)N(C)C", "note": "[NAP 226-90, 3-[(1S)-1-(dimethylamino)ethyl]phenol]", "values": [{"measurement": "potency, times less than rivastigmine", "setting": "acetylcholinesterase", "result": 10, "unit": "times"}]}, {"compound": "COc1ccc2c(c1)[C@]13CCCC[C@@H]1[C@H](C2)N(C)CC3", "note": "[dextromethorphan]", "values": [{"measurement": "Kd", "setting": "sigma one receptor [2]", "result": "~19.9", "unit": "nM"}, {"measurement": "systemic clearance", "setting": "[3]", "result": "about 23 mL/min/kg"}, {"measurement": "Kd", "setting": "sigma one receptor [4]", "result": 20, "unit": "nM"}]}]}
